Test results from patent US9987296B2, “Compositions including anthocyanin or anthocyanidin for the prevention or treatment of Articular cartilage-associated conditions” (priority 2008, dated 2018).
Entries after “also recorded” stand apart in the source; their conditions may differ.

How the values were obtained:
[1] = in vitro; cited from earlier work
[2] = system: bovine chondrocytes; experiment: Matrix synthesis rate (35S) of bovine chondrocytes in alginate beads; format: cell-based; conditions: 100 uM with TGF-β 10 ng/mL, 24 hours
Method: Chondrocytes were isolated from weight-bearing regions of young (18-30 months old) bovine femoral condyles. Primary cells were obtained from 3 different animals and suspended in beads of 2% alginate. The alginate beads were precultured in DMEM supplemented with 10% calf serum for 48 hours. Before the experiments, the chondrocytes were serum-starved overnight with 0.1% serum to reduce the effect of serum and to reduce anabolic activity to baseline.
For each treatment condition, 10 millicuries of ^35S was added to each well and incubated for the appropriate duration. At the appropriate harvest time point, each well was then washed extensively with PBS (5-6 times with 500 uL, of PBS), before trypsin and EDTA was added to dissolve alginate. After 20-30 minutes, the dissolved gels and released cells were transferred into 1.5 ml Eppendorf tubes with 150 uL, of calf serum (to promote pellet formation) and the cells were centrifuged at 2000 rpm for 5 minutes. The supernatant was removed via pipette without disturbing the cell pellet. The remaining cell and supernatant (approximately 300 ul) was then mixed with 500 uL of PBS and transferred to scintillation vials, to which 5 ml of scintillation fluid was dispensed. Each scintillation vial was capped, thoroughly vortexed and then placed in a gamma counter to measure gamma radiation emission for each sample. Each sample was measured for 5 minutes.

[3] = system: bovine cartilage explants; experiment: Mucopolysaccharide production (35 Sulfur uptake) in bovine cartilage explants; format: cell-based
Method: Bovine cartilage explants were placed in culture including 10% FCS and Vitamin C. IL-1 was added to a test population and IL-1 was not added to control. Explants were cultured for 24 hours. Kuromanin chloride was then added to each culture. Mucopolysaccharides were measured using radioactive 35 Sulfur uptake.

[4] = system: TGF-β; experiment: TGF-β by ELISA after exposure of fibroblast cells to dextrose; format: cell-based; conditions: fibroblasts
Method: For completeness, the relationship between a saccharide (dextrose) and TGF-β was also examined. Fibroblasts were treated with varying amounts of dextrose and measured for the release of TGF-β. […] It appeared that 0.5% glucose provided the greatest proliferation of fibroblasts.

Compound | oxygen radical absorbing capacity compared to Trolox (Vitamin E) [1] [times] | matrix synthesis rates (growth factor synergy) [2] | production of mucopolysaccharides ([3]; bovine cartilage preincubated with IL-1) | production of mucopolysaccharides ([3]; control bovine cartilage explants, no IL-1, listed as kuromanin) | production of mucopolysaccharides ([3]; control bovine cartilage explants, no IL-1, listed as kuromanin chloride) | presence of TGF-β ([4]; higher amounts of glucose) | TGF-β expression ([4]; varying amounts of dextrose)
OC[C@H]1O[C@@H](Oc2cc3c(O)cc(O)cc3[o+]c2-c2ccc(O)c(O)c2)[C@H](O)[C@@H](O)[C@@H]1O.[Cl-] [Kuromanin chloride] | 3.5 | synergistic effect on matrix synthesis rates | increased production of mucopolysaccharides; also recorded: increase of mucopolysaccharide | increase of mucopolysaccharide | increased production of mucopolysaccharides |  | 
O=C[C@H](O)[C@@H](O)[C@H](O)[C@H](O)CO [glucose] |  |  |  |  |  | decreased the presence of TGF-β | does not increase TGF-β expression
